Results taken from publication PMC10239507, “Development of allosteric and selective CDK2 inhibitors for contraception with negative cooperativity to cyclin binding” (Nature Communications, 2023).

Experiments:
Assay in all cases: biochemical
[1] = target: T1, 371 kinases (kinase named in each endpoint) (Homo sapiens, UniProt O75582); settings: MSK1/RPS6KA5
T1 construct: purchased Reaction Biology

[2] = target: T2, 371 kinases (kinase named in each endpoint) (Homo sapiens, UniProt Q8TF76); settings: HASPIN
T2 construct: purchased Reaction Biology

[3] = target: T3, 371 kinases (kinase named in each endpoint) (Homo sapiens, UniProt Q5TCX8); settings: MLK4
T3 construct: purchased Reaction Biology

[4] = target: T4, 371 kinases (kinase named in each endpoint) (Homo sapiens, UniProt P05129); settings: PKCG
T4 construct: purchased Reaction Biology

[5] = target: T5, 371 kinases (kinase named in each endpoint) (Homo sapiens, UniProt P06239); settings: LCK
T5 construct: purchased Reaction Biology
T5 sequence (P06239 whole entry): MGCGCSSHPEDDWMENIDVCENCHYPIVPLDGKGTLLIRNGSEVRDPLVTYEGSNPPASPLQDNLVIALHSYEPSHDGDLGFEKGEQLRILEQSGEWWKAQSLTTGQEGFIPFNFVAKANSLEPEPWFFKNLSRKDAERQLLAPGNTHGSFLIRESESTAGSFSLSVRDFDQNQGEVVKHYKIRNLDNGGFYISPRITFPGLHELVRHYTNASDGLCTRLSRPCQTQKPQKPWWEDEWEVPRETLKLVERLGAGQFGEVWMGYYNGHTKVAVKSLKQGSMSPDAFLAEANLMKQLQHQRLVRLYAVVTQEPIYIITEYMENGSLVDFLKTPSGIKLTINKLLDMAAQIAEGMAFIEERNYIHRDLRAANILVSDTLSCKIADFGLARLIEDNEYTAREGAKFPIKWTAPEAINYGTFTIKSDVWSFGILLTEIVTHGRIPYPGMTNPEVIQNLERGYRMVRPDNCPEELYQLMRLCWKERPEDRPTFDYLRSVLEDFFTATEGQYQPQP

[6] = target: T6, 371 kinases (kinase named in each endpoint) (Homo sapiens, UniProt Q04912); settings: RON/MST1R
T6 construct: purchased Reaction Biology

[7] = target: T7, 371 kinases (kinase named in each endpoint) (Homo sapiens, UniProt Q13555); settings: CAMK2g
T7 construct: purchased Reaction Biology

[8] = target: T8, 371 kinases (kinase named in each endpoint) (Homo sapiens, UniProt P06213); settings: IR
T8 construct: purchased Reaction Biology

[9] = target: T9, 371 kinases (kinase named in each endpoint) (Homo sapiens, UniProt P11309); settings: PIM1
T9 construct: purchased Reaction Biology
T9 sequence (P11309 whole entry): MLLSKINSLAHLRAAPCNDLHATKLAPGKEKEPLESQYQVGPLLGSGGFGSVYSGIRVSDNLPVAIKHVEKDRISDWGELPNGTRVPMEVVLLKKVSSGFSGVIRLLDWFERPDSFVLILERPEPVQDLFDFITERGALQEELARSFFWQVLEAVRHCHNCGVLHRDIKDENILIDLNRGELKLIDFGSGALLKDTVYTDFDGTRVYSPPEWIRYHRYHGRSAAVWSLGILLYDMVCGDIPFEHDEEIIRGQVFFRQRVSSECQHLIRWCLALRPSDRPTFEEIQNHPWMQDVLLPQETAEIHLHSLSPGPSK

[10] = target: T10, 371 kinases (kinase named in each endpoint) (Homo sapiens, UniProt Q9NQU5); settings: PAK6
T10 construct: purchased Reaction Biology

[11] = target: T11, 371 kinases (kinase named in each endpoint) (Homo sapiens, UniProt P00533); settings: EGFR
T11 construct: purchased Reaction Biology

[12] = target: T12, 371 kinases (kinase named in each endpoint) (Homo sapiens, UniProt Q8WTQ7); settings: GRK7
T12 construct: purchased Reaction Biology

[13] = target: T13, 371 kinases (kinase named in each endpoint) (Homo sapiens, UniProt P53778); settings: P38G
T13 construct: purchased Reaction Biology

[14] = target: T14, 371 kinases (kinase named in each endpoint) (Homo sapiens, UniProt Q9P286); settings: PAK5
T14 construct: purchased Reaction Biology

[15] = target: T15, 371 kinases (kinase named in each endpoint) (Homo sapiens, UniProt Q9H2G2); settings: SLK/STK2
T15 construct: purchased Reaction Biology

[16] = target: T16, 371 kinases (kinase named in each endpoint) (Homo sapiens, UniProt P11362); settings: FGFR1
T16 construct: purchased Reaction Biology

[17] = target: T17, 371 kinases (kinase named in each endpoint) (Homo sapiens, UniProt P52564); settings: MKK6
T17 construct: purchased Reaction Biology

[18] = target: T18, 371 kinases (kinase named in each endpoint) (Homo sapiens, UniProt O00238); settings: ALK6/BMPR1B
T18 construct: purchased Reaction Biology
T18 sequence (O00238 14-502): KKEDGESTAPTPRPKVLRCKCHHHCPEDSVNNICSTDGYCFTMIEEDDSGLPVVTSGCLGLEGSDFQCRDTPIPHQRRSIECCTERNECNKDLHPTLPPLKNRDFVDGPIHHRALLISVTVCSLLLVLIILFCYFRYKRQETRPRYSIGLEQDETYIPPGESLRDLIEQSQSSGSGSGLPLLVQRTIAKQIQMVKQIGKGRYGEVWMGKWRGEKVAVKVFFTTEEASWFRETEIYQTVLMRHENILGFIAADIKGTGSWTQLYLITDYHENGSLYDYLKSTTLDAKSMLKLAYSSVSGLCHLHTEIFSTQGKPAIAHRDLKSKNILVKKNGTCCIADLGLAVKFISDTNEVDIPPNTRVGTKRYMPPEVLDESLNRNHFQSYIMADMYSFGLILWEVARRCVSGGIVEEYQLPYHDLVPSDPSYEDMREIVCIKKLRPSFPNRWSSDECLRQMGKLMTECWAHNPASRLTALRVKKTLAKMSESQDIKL

[19] = target: T19, 371 kinases (kinase named in each endpoint) (Homo sapiens, UniProt P43403); settings: ZAP70
T19 construct: purchased Reaction Biology

[20] = target: T20, 371 kinases (kinase named in each endpoint) (Homo sapiens, UniProt Q8IVH8); settings: GLK/MAP4K3
T20 construct: purchased Reaction Biology
T20 sequence (Q8IVH8 whole entry): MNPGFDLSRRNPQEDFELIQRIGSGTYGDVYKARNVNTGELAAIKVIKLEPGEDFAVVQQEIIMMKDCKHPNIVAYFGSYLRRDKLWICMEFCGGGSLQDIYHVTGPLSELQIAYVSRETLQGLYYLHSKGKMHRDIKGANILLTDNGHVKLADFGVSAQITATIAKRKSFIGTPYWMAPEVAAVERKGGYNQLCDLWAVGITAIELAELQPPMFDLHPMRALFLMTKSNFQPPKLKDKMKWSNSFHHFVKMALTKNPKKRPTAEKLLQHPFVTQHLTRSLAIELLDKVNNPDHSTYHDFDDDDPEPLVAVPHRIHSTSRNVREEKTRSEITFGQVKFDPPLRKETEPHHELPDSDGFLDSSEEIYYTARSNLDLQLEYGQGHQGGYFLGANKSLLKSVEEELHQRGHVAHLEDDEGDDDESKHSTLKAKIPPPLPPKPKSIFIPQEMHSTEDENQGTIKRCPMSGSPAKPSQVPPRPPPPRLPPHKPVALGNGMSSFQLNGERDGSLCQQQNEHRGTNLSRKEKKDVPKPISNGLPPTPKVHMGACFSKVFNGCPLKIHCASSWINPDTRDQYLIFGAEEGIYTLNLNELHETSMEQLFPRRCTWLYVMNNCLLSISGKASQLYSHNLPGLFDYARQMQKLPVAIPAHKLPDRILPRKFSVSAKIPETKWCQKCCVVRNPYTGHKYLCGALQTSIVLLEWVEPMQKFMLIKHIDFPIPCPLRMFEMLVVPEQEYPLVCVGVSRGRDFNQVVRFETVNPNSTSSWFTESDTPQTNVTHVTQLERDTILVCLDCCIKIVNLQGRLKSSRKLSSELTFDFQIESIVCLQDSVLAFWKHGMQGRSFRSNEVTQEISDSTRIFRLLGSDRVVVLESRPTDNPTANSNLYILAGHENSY

[21] = target: T21, 371 kinases (kinase named in each endpoint) (Homo sapiens, UniProt Q96RG2); settings: PASK
T21 construct: purchased Reaction Biology

[22] = target: T22, 371 kinases (kinase named in each endpoint) (Homo sapiens, UniProt Q86V86); settings: PIM3
T22 construct: purchased Reaction Biology

[23] = target: T23, 371 kinases (kinase named in each endpoint) (Homo sapiens, UniProt O43353); settings: RIPK2
T23 construct: purchased Reaction Biology

[24] = target: T24, 371 kinases (kinase named in each endpoint) (Homo sapiens, UniProt P11802)
T24 construct: purchased Reaction Biology
T24 sequence (P11802 whole entry): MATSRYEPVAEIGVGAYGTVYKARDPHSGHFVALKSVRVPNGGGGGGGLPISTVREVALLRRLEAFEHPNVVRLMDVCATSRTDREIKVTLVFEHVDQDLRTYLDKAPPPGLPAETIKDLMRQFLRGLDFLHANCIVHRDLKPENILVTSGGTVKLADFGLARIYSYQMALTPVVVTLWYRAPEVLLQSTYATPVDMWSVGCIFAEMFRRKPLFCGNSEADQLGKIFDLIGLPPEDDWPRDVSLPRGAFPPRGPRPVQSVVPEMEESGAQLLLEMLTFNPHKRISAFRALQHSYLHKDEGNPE

[25] = target: T25, 371 kinases (kinase named in each endpoint) (Homo sapiens, UniProt P49759); settings: CLK1
T25 construct: purchased Reaction Biology
T25 sequence (P49759 whole entry): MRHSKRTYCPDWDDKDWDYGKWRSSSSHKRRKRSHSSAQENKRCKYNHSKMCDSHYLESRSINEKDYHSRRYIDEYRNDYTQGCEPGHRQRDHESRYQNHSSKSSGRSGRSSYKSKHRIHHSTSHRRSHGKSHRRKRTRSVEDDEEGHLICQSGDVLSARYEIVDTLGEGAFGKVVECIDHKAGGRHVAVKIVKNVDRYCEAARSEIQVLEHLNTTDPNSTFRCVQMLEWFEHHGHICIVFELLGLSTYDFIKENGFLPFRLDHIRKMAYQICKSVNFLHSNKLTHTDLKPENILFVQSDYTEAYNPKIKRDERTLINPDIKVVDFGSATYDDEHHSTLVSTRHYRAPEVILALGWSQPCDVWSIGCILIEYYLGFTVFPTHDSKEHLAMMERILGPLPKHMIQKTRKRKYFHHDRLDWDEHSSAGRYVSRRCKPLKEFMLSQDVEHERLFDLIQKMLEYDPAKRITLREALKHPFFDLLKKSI

[26] = target: T26, 371 kinases (kinase named in each endpoint) (Homo sapiens, UniProt P09769); settings: FGR
T26 construct: purchased Reaction Biology
T26 sequence (P09769 whole entry): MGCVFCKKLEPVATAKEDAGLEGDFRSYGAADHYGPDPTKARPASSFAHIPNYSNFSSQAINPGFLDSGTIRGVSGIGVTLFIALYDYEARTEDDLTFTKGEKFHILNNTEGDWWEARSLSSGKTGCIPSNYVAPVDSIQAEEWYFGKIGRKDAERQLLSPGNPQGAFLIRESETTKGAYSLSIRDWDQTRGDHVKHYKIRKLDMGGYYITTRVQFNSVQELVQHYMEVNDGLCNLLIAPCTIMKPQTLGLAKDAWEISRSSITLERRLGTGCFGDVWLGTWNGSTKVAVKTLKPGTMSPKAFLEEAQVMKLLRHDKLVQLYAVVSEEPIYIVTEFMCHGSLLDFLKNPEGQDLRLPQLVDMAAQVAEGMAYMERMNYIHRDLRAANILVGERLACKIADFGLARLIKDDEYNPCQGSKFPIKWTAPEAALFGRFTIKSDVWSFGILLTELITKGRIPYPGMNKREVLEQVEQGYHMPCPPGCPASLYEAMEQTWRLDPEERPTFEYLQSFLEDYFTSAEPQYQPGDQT

[27] = target: T27, 371 kinases (kinase named in each endpoint) (Homo sapiens, UniProt Q6P2M8); settings: CAMK1B
T27 construct: purchased Reaction Biology

[28] = target: T28, 371 kinases (kinase named in each endpoint) (Homo sapiens, UniProt Q9NRM7); settings: LATS2
T28 construct: purchased Reaction Biology

[29] = target: T29, 371 kinases (kinase named in each endpoint) (Homo sapiens, UniProt P51955); settings: NEK2
T29 construct: purchased Reaction Biology

[30] = target: T30, 371 kinases (kinase named in each endpoint) (Homo sapiens, UniProt P29376); settings: TYK1/LTK
T30 construct: purchased Reaction Biology

[31] = target: T31, 371 kinases (kinase named in each endpoint) (Homo sapiens, UniProt P36896); settings: ALK4/ACVR1B
T31 construct: purchased Reaction Biology
T31 sequence (P36896 24-505): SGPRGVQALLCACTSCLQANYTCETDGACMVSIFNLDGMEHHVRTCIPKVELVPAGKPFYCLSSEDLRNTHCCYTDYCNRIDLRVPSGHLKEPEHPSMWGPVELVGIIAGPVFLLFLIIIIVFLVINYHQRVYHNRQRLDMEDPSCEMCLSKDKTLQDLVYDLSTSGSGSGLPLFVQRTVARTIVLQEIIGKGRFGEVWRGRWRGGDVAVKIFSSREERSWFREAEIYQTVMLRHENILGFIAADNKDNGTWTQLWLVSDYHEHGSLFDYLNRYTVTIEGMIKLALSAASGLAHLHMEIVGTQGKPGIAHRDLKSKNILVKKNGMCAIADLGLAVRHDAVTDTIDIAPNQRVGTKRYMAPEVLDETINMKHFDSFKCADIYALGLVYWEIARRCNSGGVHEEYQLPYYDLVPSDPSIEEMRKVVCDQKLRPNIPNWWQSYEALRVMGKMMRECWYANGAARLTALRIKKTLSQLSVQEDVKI

[32] = target: T32, 371 kinases (kinase named in each endpoint) (Homo sapiens, UniProt Q9HBH9); settings: MNK2
T32 construct: purchased Reaction Biology

[33] = target: T33, 371 kinases (kinase named in each endpoint) (Homo sapiens, UniProt Q96SB4); settings: SRPK1
T33 construct: purchased Reaction Biology

[34] = target: T34, 371 kinases (kinase named in each endpoint) (Homo sapiens, UniProt P42681); settings: TXK
T34 construct: purchased Reaction Biology
T34 sequence (P42681 whole entry): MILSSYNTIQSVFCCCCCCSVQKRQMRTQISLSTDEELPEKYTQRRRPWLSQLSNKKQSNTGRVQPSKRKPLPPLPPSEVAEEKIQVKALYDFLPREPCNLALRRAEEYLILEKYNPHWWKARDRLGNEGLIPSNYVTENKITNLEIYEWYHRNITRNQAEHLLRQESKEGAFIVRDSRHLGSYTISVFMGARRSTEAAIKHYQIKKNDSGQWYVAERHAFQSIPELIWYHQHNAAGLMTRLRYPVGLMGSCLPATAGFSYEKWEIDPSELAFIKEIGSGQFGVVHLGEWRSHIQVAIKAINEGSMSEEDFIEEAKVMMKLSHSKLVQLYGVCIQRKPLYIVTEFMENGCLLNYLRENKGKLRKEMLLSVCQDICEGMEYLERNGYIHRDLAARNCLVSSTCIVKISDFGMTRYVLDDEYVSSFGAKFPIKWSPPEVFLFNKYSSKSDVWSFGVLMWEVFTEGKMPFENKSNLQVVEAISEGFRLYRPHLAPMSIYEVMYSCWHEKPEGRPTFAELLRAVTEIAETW

[35] = target: T35, 371 kinases (kinase named in each endpoint) (Homo sapiens, UniProt Q9UKE5); settings: TNIK
T35 construct: purchased Reaction Biology

[36] = target: T36, 371 kinases (kinase named in each endpoint) (Homo sapiens, UniProt P43405); settings: SYK
T36 construct: purchased Reaction Biology

[37] = target: T37, 371 kinases (kinase named in each endpoint) (Homo sapiens, UniProt P42684); settings: ABL2/ARG
T37 construct: purchased Reaction Biology

O=C(O)c1cc(C(F)(F)F)ccc1NCCc1c[nH]c2cc(Br)ccc12 [Compound 5, 2-((2-(6-Bromo-1H-indol-3-yl)ethyl)amino)−5-(trifluoromethyl)benzoic Acid]
activity at 10 µM [1]: 82.2 ± 0.5% | activity at 10 µM [2]: 59.9 ± 1.3% | activity at 10 µM [3]: 88.2 ± 0.3% | activity at 10 µM [4]: 81.9 ± 1.6% | activity at 10 µM [5]: 76.5 ± 2.7% | activity at 10 µM [6]: 89.7 ± 2.7% | activity at 10 µM [7]: 74.4% | activity at 10 µM [8]: 64.7 ± 1.1% | activity at 10 µM [9]: 40.6 ± 3.2% | activity at 10 µM [10]: 244 ± 9% | activity at 10 µM [11]: 87.8 ± 1% | activity at 10 µM [12]: 101.5 ± 0.4% | activity at 10 µM [13]: 107 ± 1.5% | activity at 10 µM [14]: 101.2 ± 0.3% | activity at 10 µM [15]: 89.7 ± 3% | activity at 10 µM [16]: 102.6 ± 0.3% | activity at 10 µM [17]: 101 ± 0.2% | activity at 10 µM [18]: 96.7 ± 0.2% | activity at 10 µM [19]: 95.1 ± 1.6% | activity at 10 µM [20]: 97.8 ± 0.3% | activity at 10 µM [21]: 95.2 ± 2.9% | activity at 10 µM [22]: 20.6 ± 1% | activity at 10 µM [23]: 109 ± 2.9% | activity at 10 µM ([24]; CDK4/CYCLIN D1): 80.1 ± 2.6% | activity at 10 µM ([24]; CDK4/CYCLIN D2): 29.1 ± 0.1% | activity at 10 µM ([24]; CDK4/CYCLIN D3): 82.9 ± 0.6% | activity at 10 µM [25]: 109.3 ± 0.4% | activity at 10 µM [26]: 83.5 ± 1.1% | activity at 10 µM [27]: 59.1 ± 0.7% | activity at 10 µM [28]: 79.1 ± 1.6% | activity at 10 µM [29]: 50.8 ± 1.3% | activity at 10 µM [30]: 86.2 ± 1.1% | activity at 10 µM [31]: 66.7 ± 0.1% | activity at 10 µM [32]: 93.3 ± 1.9% | activity at 10 µM [33]: 91.3 ± 0.5% | activity at 10 µM [34]: 80.5 ± 0.4% | activity at 10 µM [35]: 51.9 ± 1.4% | activity at 10 µM [36]: 85.8 ± 1.6% | activity at 10 µM [37]: 94.7 ± 2.8%
